The target of one data set is sigma 2 receptor (Homo sapiens, UniProt Q5BJF2). Nature of the data set: Binding to sigma 2 receptor. Conditions: 0.1 nM-10 μM. An excerpt:
(§1) It was specifically designed to provide information not only on potential limitations of drug candidates, but also for off-target activity identification. […] In a further extension of this study, functional studies were done on most of these receptors.

A further data set concerns PC12 cells. Nature of the data set: Mitochondrial apoptosis pathway, Bax and Bcl-2 immunoreactivity in PC12 cells. It counts as cell-based, rat.
Data set [1] has as its target T1, M1 mAChR (Homo sapiens, UniProt P11229).
T1 sequence (P11229 1-460): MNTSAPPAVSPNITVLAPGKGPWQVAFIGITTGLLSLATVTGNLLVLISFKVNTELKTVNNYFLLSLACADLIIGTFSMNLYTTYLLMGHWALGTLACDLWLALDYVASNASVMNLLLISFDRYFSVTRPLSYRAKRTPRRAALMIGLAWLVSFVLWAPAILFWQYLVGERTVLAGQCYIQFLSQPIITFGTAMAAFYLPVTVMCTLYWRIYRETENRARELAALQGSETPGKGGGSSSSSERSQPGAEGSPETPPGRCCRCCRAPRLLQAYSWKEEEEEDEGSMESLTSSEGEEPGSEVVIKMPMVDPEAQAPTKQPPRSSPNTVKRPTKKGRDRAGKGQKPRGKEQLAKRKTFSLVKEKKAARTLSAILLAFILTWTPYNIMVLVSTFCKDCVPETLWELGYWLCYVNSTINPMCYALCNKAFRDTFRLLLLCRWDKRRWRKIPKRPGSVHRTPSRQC
Nature of the data set: High-throughput profiling, binding at 10 μM. Set-up: expressed in transfected cells.
From the text: as §1

The next data set has as its target 5HT2A receptor (Homo sapiens, UniProt P28223). The data set is described as follows: Functional study, agonist or antagonist.
From the text: as §1

The test system of the next data set is M2-M5 mAChR subtypes. The data set is described as follows: Intracellular Ca2+ mobilization in cells stably transfected with M2-M5 mAChR subtypes. It counts as cell-based.
The procedure of data set [2]:
On the day of dosing, careful clinical examinations were carried out and recorded periodically during the first 4 hours post-dosing and at the end of the respective working day. Thereafter, animals were inspected and clinical signs were recorded at least once daily throughout the entire 14-day observation period. Observations included changes in skin, fur, eyes, mucous membranes, occurrence of secretions and excretions (e.g. diarrhea) and autonomic activity (e.g. lacrimation, salivation, piloerection, pupil size, unusual respiratory pattern). Changes in gait, posture and response to handling, as well as the presence of bizarre behavior, tremors, convulsion, sleep and coma were also examined. […] In view of the sequential method applied in the current study and in order to standardize, as much as possible, all body weight and body weight gain values, the respective percentage change in body weight vs. the day of dosing was calculated for each animal and group. […] All animals were subjected to a full detailed necropsy and gross pathological examination following the scheduled termination. At necropsy, all animals were subjected to thorough examination, including the external surface of the body, all orifices, cranial, thoracic and abdominal cavities and their contents.

Data set [3] concerns the target T1, M1 mAChR. Nature of the data set: αAPPs secretion in CHO cells double transfected with human APP695 and human M1 mAChR. Type of data set: cell-based. As to the method: α-APPs Secretion studies following incubation with the tested compounds were performed as described in Haring, et al. J. Neurochem., 1998, 71:2094-103. […] A day later, cells were washed twice with serum free media, and treated with the test compound at various concentrations ranging from 0.1 nM to 100 μM. […] After 1 hour the conditioned medium was collected to cold Eppendorf tubes, which included a protease inhibitor cocktail (0.1 mM phenylmethylsulphonyl fluoride (PMSF); 5 μg/ml leupeptin; 5 μg/ml pepstatin and 5 units/ml aprotinin) for determining αAPPs release. The protein content of each sample was concentrated using Centricon tubes (Amicon, Beverly, Mass.). […] CHO cells double transfected with human APP695 and M1 mAChR APPs bands were probed using anti-amyloid beta protein (1:1000, monoclonal 6E10 antibody, MAB1560, Chemicon) and peroxidase-linked rabbit anti mouse IgG (1:5,000; Jackson Immuno Research, PA). PC12 cells stably transfected with M1 mAChR APPs bands were probed using the anti-Alzheimer precursor protein A4 (1:4,000; monoclonal 22C11 antibody, Boehringer Mannheim) and the peroxidase-linked rabbit anti mouse IgG (1:20,000; Jackson Immuno Research, PA). Following extensive washout, the membranes were treated with Western Lightning Chemiluminescence Reagent Plus (PerkinElmer Life Sciences, MA) followed by exposure to SuperRX film (Fuji Medical X-ray film, Tokyo, Japan). Quantitative determination of the total APPs bands was performed by Scion Image program (NIH, Bethesda, USA). Samples of control and CCh were assayed in parallel and thus enabled compilation of data from separate experiments.

Another data set concerns Wistar rats. Nature of the data set: Passive avoidance, trihexyphenidyl-induced memory impairment in rats. Type of data set: in vivo, rat. The text has this: Trihexyphenidyl is a selective M1 muscarinic antagonist that crosses the blood brain barrier and induces memory and learning impairments (Bymaster et al., J Pharmacol Exp. Ther. 267: 16-24, 1993; Roldan et al., Neurosci. Lett. 230: 93-96, 1997; Kimura et al., Brain Res. 834: 6-12, 1999). […] Naive Wistar rats were used in the experiments below. The passive avoidance (PA) task consists of a training (acquisition) phase and a retention phase. In the training procedure each rat was individually placed in the small illuminated compartment and after 60 s. of familiarization/adaptation, the door to the large compartment was opened and the latency to enter was measured (Initial Latency) Immediately following entry into the dark compartment, the door was closed and inescapable foot shock (0.6 mA for 3 s) was delivered through the grid floor. […] After the acquisition trial the rat was returned to its home cage. Retention of the passive avoidance task was measured 24 h later, by again placing the rat in the light compartment and after a 60 s adaptation interval, the door was opened and the latency to re-enter the dark compartment was measured. […] Two separate experiments were conducted. […] In both experiments the rats were divided into 2 groups. One main group was treated with trihexyphenidyl (5 mg/kg, s.c) and the second main group was treated with vehicle (DDW-1 ml/kg, s.c.), 30 min before the shock.
In a further extension of these studies, retention of the passive avoidance task was measured 72 h later, by again placing the rat in the light compartment and after a 60 s adaptation interval, the door was opened and the latency to re-enter the dark compartment was measured. A cutoff point of 600 s was used for retention latency. […] Rats were divided into 2 groups. One group (N=30) was treated with trihexyphenidyl (5 mg/kg, s.c) and the second group (N=29) was treated with vehicle (DDW-1 ml/kg, s.c.), 30 min before the shock.

Molecules are shown by their SMILES.

Chain of sigma 2 receptor (Q5BJF2 whole entry, species assumed): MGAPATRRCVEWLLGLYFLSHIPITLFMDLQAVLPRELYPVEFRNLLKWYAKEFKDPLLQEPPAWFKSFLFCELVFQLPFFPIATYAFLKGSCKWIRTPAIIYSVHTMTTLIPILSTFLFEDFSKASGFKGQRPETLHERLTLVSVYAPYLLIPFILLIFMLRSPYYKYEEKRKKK
Chain of 5HT2A receptor (P28223 whole entry): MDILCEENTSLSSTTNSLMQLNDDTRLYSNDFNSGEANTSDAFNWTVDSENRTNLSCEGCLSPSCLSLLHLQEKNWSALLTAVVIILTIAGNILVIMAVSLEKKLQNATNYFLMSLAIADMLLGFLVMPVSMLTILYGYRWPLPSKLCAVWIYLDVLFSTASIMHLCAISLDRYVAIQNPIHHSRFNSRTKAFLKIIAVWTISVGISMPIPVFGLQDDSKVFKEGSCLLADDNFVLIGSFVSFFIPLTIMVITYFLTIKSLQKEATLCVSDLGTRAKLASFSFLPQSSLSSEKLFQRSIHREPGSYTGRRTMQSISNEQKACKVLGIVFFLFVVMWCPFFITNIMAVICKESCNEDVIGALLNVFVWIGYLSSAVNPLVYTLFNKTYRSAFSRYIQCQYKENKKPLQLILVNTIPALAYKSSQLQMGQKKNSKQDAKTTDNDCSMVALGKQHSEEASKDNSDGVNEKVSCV
From the text for M2-M5 mAChR subtypes: To evaluate selectivity for a subtype of mAChR, in particular the M1 mAChR vs. M3 and MS mAChR, the assays were calibrated using ligands that have a combined activity, e.g. M1 agonistic and M3 antagonistic or M1 agonistic and MS antagonistic profiles, respectively. This can eliminate effects due to different receptor reserves in cell-based assays.
Method for PC12 cells: These cells were partially differentiated (2-3 days), as observed under microscope. […] The pellet (rich mitochondrial fraction) was re-suspended with 200 μl Ripa buffer and lysed by rapid passage through a syringe needle (23G) for five to six times. The lysate was then used for further evaluation.
Bands were probed using the Rabbit Bax antibody (1:1000, Cell signaling, Cat. No. 2772) and Rabbit Bcl-2 antibody (1:1000, Cell signaling, Cat. No. 2870) followed by anti rabbit IgG (H&L) HRP (1:5,000, Jackson Immuno Research, 111-035-144).

Consider `C[C@@H]1SC2(CCN(C)CC2)CN1C(=O)CCc1c[nH]c2ccccc12` (single isomer, unassigned) [AF710B], for which the “binding to sigma 2 receptor” value on sigma 2 receptor was “does not bind”. Moreover, the “Bax elevation after NGF deprivation” value with PC12 cells is “attenuated Bax elevation”. The Emax at 0.01 µM in the data set on PC12 cells (Rattus norvegicus, PC-12, 10 nM, read-out: Aβ 25-35 induced neurotoxicity expressed as Bax/Bcl2, maximum effect) worked out at 35%. For the same compound, the “binding to M1 mAChR” value at M1 mAChR [1] is reported as “binds”. The “agonist or antagonist activity on 5HT2A receptor” value at 5HT2A receptor was “inactive”. Also, the “agonistic activity on the M2-M5 mAChR subtypes” value with M2-M5 mAChR subtypes is “did not show detectable agonistic activity”. Further, the mortality result in data set [2] (1, 10 and 50 mg/kg, oral gavage, 14-day observation) is reported as “No mortality”. In addition, the “gross pathological findings at necropsy” value in data set [2] (rat, in vivo, po) is reported as “No gross pathological findings”. Further, the “release of αAPPs” value on M1 mAChR [3] (CHO cells, 0.1 nM to 1 μM) is reported as “enhanced the release of αAPPs”. Besides, at M1 mAChR [3] (doubly-transfected CHO cells, AF710B at 0.01 μM, AF710 at 0.1 μM, AF710A at 1 μM), the “maximal αAPPs secretion in comparison to untreated control cells” value amounted to 225%. The retention latency turned out to be 276.3 ± 60.7 s with Wistar rats (1 μg/kg po, 72 h, cutoff 600 s, trihexyphenidyl+DDW 98.6±28.0, control 568.7±23.7); 272.7 ± 51.6 s in the data set on Wistar rats (10 μg/kg po, 72 h, cutoff 600 s); 185.4 ± 44.0 s with Wistar rats (AF710B 10 μg/kg with NE-100 1 mg/kg); 252.50 ± 32.30 s with Wistar rats (Experiment 1, 10 μg/kg po, 24 h, cutoff 300 s, trihexyphenidyl+DDW 54.22±14.60, control 242.00±30.60); 178.82 ± 32.70 s with Wistar rats (Experiment 1, 30 μg/kg po, 24 h, cutoff 300 s); 122.00 ± 34.60 s with Wistar rats (Experiment 1, 100 μg/kg po, 24 h, not different from trihexyphenidyl+DDW). Moreover, the retention latency with Wistar rats (Experiment 2, 1 μg/kg po, 24 h, trihexyphenidyl+DDW 63.89±18.79, control 274.70±20.8) came to 215.6 ± 36.00 s; in the data set on Wistar rats (Experiment 2, 3 μg/kg po, 24 h) it was 219.80 ± 36.00 s; in the data set on Wistar rats (NE-100 experiment, AF710B 10 μg/kg, trihexyphenidyl+DDW 122.0±29.2, control 525.7±51.0), 361.7 ± 67.1 s. For the same compound, the “cognitive enhancer dose range” value in the data set on Wistar rats (po, trihexyphenidyl-induced passive avoidance impairment) fell in the range of 1 to 30 µg/kg.
